# Source: PMC12406258, “Uncovering the Unusual Inhibition Mechanism of a Trypanosome Alternative Oxidase Inhibitor Displaying Broad-Spectrum Activity against African Animal Trypanosomes” (Journal of Medicinal Chemistry, 2025)
# How the values were obtained:
# [1] = test system: T. brucei; assay: DNA configuration by fluorescence microscopy after DAPI staining; format: cell-based; details: 2 × EC50, by 24 h
# Text: To assess the cause of the apparent 24-h growth arrest visualized in Figure , we assessed the cellular DNA content by flow cytometry of fixed trypanosomes stained with the nucleic acid dye propidium iodide after RNase treatment. […] This indicates an inability to initiate new synthesis of nuclear DNA, while cells that already past that checkpoint were able to complete cell division. […] In T. brucei, the first phase of the cell cycle is the replication of the kinetoplast, before the subsequent duplication of the nucleus. Thus, at the start of the experiment (t = 0 h) an equal percentage of cells in the “compound 1” and “untreated control” cultures contained a single nucleus and kinetoplast (1N1K) or were in the initial stages of cell division with 2 kinetoplasts (1N2K) (Figure B). […] These observations strengthen our conclusion that treatment with 1 stops the initiation of a new cell division cycle, and specifically the replication of the kinetoplast that must precede nuclear DNA synthesis in trypanosomes. […]
# The configuration of nuclei and kinetoplast DNA of treated and untreated T. brucei was visualized using a Vectashield mounting medium with the dye 4,6-diamidino-2-phenylindole (DAPI) (Vector Lab. CA, USA), as described. […] At least 500 cells were scored per slide for the number of kinetoplasts (K) and nuclei (N) as 1N1K, 1N2K, 2N2K, or other.
# [2] = Microsomal stability, mouse liver microsomes; format: in vitro ADME; details: female, CD1, mouse, pH 7.4, 0.5 mg/mL microsomes, NADPH
# Description: (§1) Pooled mixed gender human liver microsomes (HLMs) and Pooled CD1 mouse liver microsomes (female) were purchased from Tebubio. The NADPH regenerating system was purchased from Promega. All other reagents and solvents were of special or analytical grade and were commercially available. The assays were performed according to a reported protocol with small changes. […] The reactions were initiated by adding liver microsomes at a final concentration of 0.5 mg/mL in a total volume of 250 μL. […] The supernatants were analyzed with LC/MS for the amount of parent compound remaining, and the CLint and t 1/2 were determined.
# [3] = Microsomal stability, human liver microsomes; format: in vitro ADME; details: both sexes, pH 7.4, 0.5 mg/mL microsomes, NADPH
# Description: as §1
# [4] = test system: T. b. brucei STIB795/luc; assay: In vivo STIB795 mouse model of T. b. brucei infection; details: 5 mg/kg/day i.p. for 4 days
structure (smiles),measurement,setting,value
"Cc1cc(O)ccc1C(=O)OCCCCCCCCCCCCCC[P+](c1ccccc1)(c1ccccc1)c1ccccn1.[Br-] [Compound 1, {14-[(4-Hydroxy-2-methylbenzoyl)-oxy]-tetradecyl}-diphenyl(pyridin-2-yl)-Phosphonium Bromide]",Percentage of 1N1K cells,[1],100%
same,microsomal CLint at 1 μM,"[2]; read-out: CLint,met in mouse microsomes",293 ± 19 µL/min/mg
same,half-life at 1 μM,[2]; read-out: t1/2 in mouse microsomes,4.6 min
same,microsomal CLint at 1 μM,"[3]; read-out: CLint,met in human microsomes",216 ± 2.3 µL/min/mg
same,half-life at 1 μM,[3]; read-out: t1/2 in human microsomes,6.2 min
same,In vivo efficacy (extension of lifespan),[4],no in vivo efficacy
